Test results: patent publication US10337014B2, “Low molecular weight cyclic amine containing cationic lipids for oligonucleotide delivery” (SIRNA THERAPEUTICS, INC., priority 2010, dated 2019)

Columns and labels:
[1] = Determination of cationic lipid levels in rat liver (LC/MS-MS); type: in vivo; conditions: rats dosed with RDV, 0.5 mg/kg; compared with RDV containing DLinKC2DMA (Compound 12) or MC3 (Compound 13), also 0.5 mg/kg
Method: Liver tissue was weighed into 20-ml vials and homogenized in 9 v/w of water using a GenoGrinder 2000 (OPS Diagnostics, 1600 strokes/min, 5 min). A 50 μL aliquot of each tissue homogenate was mixed with 300 μL of extraction/protein precipitating solvent (50/50 acetonitrile/methanol containing 500 nM internal standard) and the plate was centrifuged to sediment precipitated protein. A volume of 200 μL of each supernatant was then transferred to separate wells of a 96-well plate and 10 μl samples were directly analyzed by LC/MS-MS.
Standards were prepared by spiking known amounts of a methanol stock solution of compound into untreated rat liver homogenate (9 vol water/weight liver). Aliquots (50 μL) each standard/liver homogenate was mixed with 300 μL of extraction/protein precipitating solvent (50/50 acetonitrile/methanol containing 500 nM internal standard) and the plate was centrifuged to sediment precipitated protein. A volume of 200 μL of each supernatant was transferred to separate wells of a 96-well plate and 10 μl of each standard was directly analyzed by LC/MS-MS.
Absolute quantification versus standards prepared and extracted from liver homogenate was performed using an Aria LX-2 HPLC system (Thermo Scientific) coupled to an API 4000 triple quadrupole mass spectrometer (Applied Biosystems). […]

[2] = Rat in vivo evaluation of toxicity (serum ALT and AST); conditions: RDV (LNP) with ApoB siRNA, tail vein, Sprague-Dawley female rats, 24 hours after dosing; compared with RDV containing DLinKC2DMA (Compound 12)
Method: (§1) Six hours post dose, food is removed from the cages. Animal necropsy is performed 24 hours after LNP dosing. Rats are anesthetized under isoflurane for 5 minutes, then maintained under anesthesia by placing them in nose cones continuing the delivery of isoflurane until ex-sanguination is completed. Blood is collected from the vena cava using a 23 gauge butterfly venipuncture set and aliquoted to serum separator vacutainers for serum chemistry analysis. Punches of the excised caudate liver lobe are taken and placed in RNALater (Ambion) for mRNA analysis. Preserved liver tissue was homogenized and total RNA isolated using a Qiagen bead mill and the Qiagen miRNA-Easy RNA isolation kit following the manufacturer's instructions. Liver ApoB mRNA levels were determined by quantitative RT-PCR. Message was amplified from purified RNA utilizing a rat ApoB commercial probe set (Applied Biosystems Cat #RN01499054_m1). The PCR reaction was performed on an ABI 7500 instrument with a 96-well Fast Block. The ApoB mRNA level is normalized to the housekeeping PPIB (NM 011149) mRNA. PPIB mRNA levels were determined by RT-PCR using a commercial probe set (Applied Biosytems Cat. No. Mm00478295_m1). Results are expressed as a ratio of ApoB mRNA/PPIB mRNA. All mRNA data is expressed relative to the PBS control dose. […]

[3] = tested on: mRNA transcript for the ApoB gene; experiment: Rat in vivo evaluation of efficacy (ApoB siRNA LNP, liver ApoB mRNA by RT-PCR); conditions: RDV (LNP) with ApoB siRNA, tail vein, Sprague-Dawley female rats, 24 hours after dosing; compared with RDV containing DLinKC2DMA (Compound 12)
Method: as §1

[4] = tested on: mRNA transcript for the firefly (Photinus pyralis) luciferase gene; experiment: Mouse in vivo evaluation of efficacy (luciferase siRNA LNP, liver luminescence); conditions: RDV (LNP) with Luc siRNA, tail vein, 0.1 to 0.5 mg/kg siRNA, imaged 48 hours post dose; compared with RDV containing Compound A
Method: LNPs utilizing Compound 4, in the nominal compositions described immediately above, were evaluated for in vivo efficacy. The siRNA targets the mRNA transcript for the firefly (Photinus pyralis) luciferase gene (Accession #M15077). […] The in vivo luciferase model employs a transgenic mouse in which the firefly luciferase coding sequence is present in all cells. ROSA26-LoxP-Stop-LoxP-Luc (LSL-Luc) transgenic mice licensed from the Dana Farber Cancer Institute are induced to express the Luciferase gene by first removing the LSL sequence with a recombinant Ad-Cre virus (Vector Biolabs). Due to the organo-tropic nature of the virus, expression is limited to the liver when delivered via tail vein injection. Luciferase expression levels in liver are quantitated by measuring light output, using an IVIS imager (Xenogen) following administration of the luciferin substrate (Caliper Life Sciences). Pre-dose luminescence levels are measured prior to administration of the RDVs. Luciferin in PBS (15 mg/mL) is intraperitoneally (IP) injected in a volume of 150 μL. After a four minute incubation period mice are anesthetized with isoflurane and placed in the IVIS imager. The RDVs (containing siRNA) in PBS vehicle were tail vein injected n a volume of 0.2 mL. […] In vivo efficacy results are expressed as % inhibition of luminescence relative to pre-dose luminescence levels. […]

SMILES: CCCCC/C=C\C/C=C\CCCCCCCCO[C@@H]1CN(C)C[C@H]1OCCCCCCCC (relative stereo) [Compound 4, trans-1-Methyl-3-[((9Z,12Z)-octadeca-9,12-dienyl)oxy]-4-octyloxy-pyrrolidine]
- cationic lipid levels in rat liver [1]: much lower
- tolerability (increases in serum alanine amino transferase and aspartate amino transferase) [2]: significantly improved tolerability
- in vivo efficacy (liver ApoB mRNA/PPIB mRNA relative to PBS control) [3]: Modestly decreased efficacy
- in vivo efficacy (% inhibition of luminescence relative to pre-dose luminescence levels) [4]: Greater efficacy
